Results on 13 substances are retold here after patent US20240247080A1, “GLP1/GIP/NPY2 RECEPTOR TRIPLE AGONISTS” (Boehringer Ingelheim International GmbH, priority 2022, published 2024).

Type in all cases: cell-based
One experiment deals with T1, hNPY2R (Homo sapiens, UniProt P49146).
T1 construct: expressed in transfected cells; host or cells: HEK-293 cells carrying a CRE-luciferase reporter gene
T1 sequence (P49146 1-381): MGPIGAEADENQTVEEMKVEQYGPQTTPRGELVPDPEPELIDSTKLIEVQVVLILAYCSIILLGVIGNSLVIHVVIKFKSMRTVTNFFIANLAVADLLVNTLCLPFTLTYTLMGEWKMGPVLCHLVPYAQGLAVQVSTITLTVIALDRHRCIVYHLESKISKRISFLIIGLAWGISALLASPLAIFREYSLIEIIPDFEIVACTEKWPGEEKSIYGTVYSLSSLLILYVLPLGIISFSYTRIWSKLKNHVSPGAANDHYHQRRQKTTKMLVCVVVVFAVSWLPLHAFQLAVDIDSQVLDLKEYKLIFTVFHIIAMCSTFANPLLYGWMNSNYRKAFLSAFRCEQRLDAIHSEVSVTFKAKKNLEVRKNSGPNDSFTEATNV
Nature of the experiment: hNPY2R CreLuc reporter gene assay in 0.5% and 100% plasma. Particulars: CreLuc reporter gene assay. The text has this: Example 1: hGLPR/hGIPR/hNPY2R CreLuc Assay in 0.5% and 100% Plasma
CHO and HEK-293 recombinant cell lines express a luciferase reporter gene under control of the cAMP responsive element (CRE). As a second recombinant protein the GLP-1 and NPY2 receptors were expressed in the reporter gene HEK cells, and the GIP receptor was expressed in the reporter gene CHO cells, respectively. Stimulation of these recombinant cells with an agonist leads to an increase of intracellular cAMP levels. In the presence of cAMP, the transcription factor CRE binding protein (CREB) binds to the CRE and to the CREB binding protein (CBP), which leads to transcription of the luciferase reporter gene. Peptides upon serial-dilution in 100% DMSO were transferred into 384-well assay plates with 5 μl pre-dispensed assay buffer (1×HBSS, 20 mM HEPES, pH7.4 supplemented with 0.5% human plasma) using acoustic dispensing on a Labcyte ECHO. Cryo-preserved transgenic reporter gene cells were thawed in assay buffer. 20 μl (10.000 cells/well) were added to the plate with the peptides and incubated for 4 hours at 37° C. in a humidified incubator. Following incubation, assay plates are equilibrated to room temperature, followed by addition of 25 μl of Bright-GIo™ Luciferase reagent, incubation at room temperature for 10 minutes and analysis of luminescence (Envision Reader). Concentration response evaluation of compounds was performed with 8 concentrations of peptides (covering four decades). EC50 values were calculated by non-linear regression using sigmoid concentration-response with variable slope. The same assays were run in the presence of 100% plasma with no additional buffer constituents.
A general note: In a reporter assay the amount or activity of a reporter protein is the signal.

Another experiment has as its target T2, hGIPR (Homo sapiens, UniProt P48546).
T2 construct: expressed in transfected cells; host or cells: CHO cells carrying a CRE-luciferase reporter gene
T2 sequence (P48546 22-466): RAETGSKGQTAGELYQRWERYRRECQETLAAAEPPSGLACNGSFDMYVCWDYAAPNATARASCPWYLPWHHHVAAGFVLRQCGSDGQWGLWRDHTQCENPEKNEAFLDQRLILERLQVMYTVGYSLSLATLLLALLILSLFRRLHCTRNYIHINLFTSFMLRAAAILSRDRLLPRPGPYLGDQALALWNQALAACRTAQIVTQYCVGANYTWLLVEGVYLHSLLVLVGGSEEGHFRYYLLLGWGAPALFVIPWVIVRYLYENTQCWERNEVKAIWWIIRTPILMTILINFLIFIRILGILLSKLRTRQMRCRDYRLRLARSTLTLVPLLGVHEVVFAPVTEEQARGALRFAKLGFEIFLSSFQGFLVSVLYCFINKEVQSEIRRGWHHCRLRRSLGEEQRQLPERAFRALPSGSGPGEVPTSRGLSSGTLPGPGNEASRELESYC
Nature of the experiment: hGIPR CreLuc reporter gene assay in 0.5% and 100% plasma. Particulars: CreLuc reporter gene assay. Put shortly:
(§1)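 HEK-293 cells co-expressing GLP-1 or NPY2 receptor and CHO cells expressing GIP receptor, each carrying a CRE-driven luciferase reporter, were stimulated with peptides for 4 hours at 37 °C. Luminescence was read after Bright-Glo addition. EC50 came from 8-point, four-decade curves fitted by variable-slope non-linear regression.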

In a further experiment the target is T3, hGLP1R (Homo sapiens, UniProt P43220).
T3 construct: expressed in transfected cells; host or cells: HEK-293 cells carrying a CRE-luciferase reporter gene
T3 sequence (P43220 24-463): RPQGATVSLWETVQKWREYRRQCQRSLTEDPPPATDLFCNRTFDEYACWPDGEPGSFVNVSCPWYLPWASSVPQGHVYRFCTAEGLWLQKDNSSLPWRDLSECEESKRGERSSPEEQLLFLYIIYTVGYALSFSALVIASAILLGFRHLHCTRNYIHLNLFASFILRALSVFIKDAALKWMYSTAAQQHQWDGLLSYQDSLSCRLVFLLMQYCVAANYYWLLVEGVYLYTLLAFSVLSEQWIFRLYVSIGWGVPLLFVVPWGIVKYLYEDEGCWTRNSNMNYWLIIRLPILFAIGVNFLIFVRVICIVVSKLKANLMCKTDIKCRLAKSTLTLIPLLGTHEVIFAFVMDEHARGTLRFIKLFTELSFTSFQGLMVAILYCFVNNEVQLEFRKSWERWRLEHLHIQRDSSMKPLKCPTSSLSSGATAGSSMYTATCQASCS
Nature of the experiment: hGLP1R CreLuc reporter gene assay in 0.5% and 100% plasma. Particulars: CreLuc reporter gene assay, 0.5% human plasma; read-out: hGLP1R 0.5% hP. The procedure, abridged: as §1

The mark [1] stands for this setting: 0.5% human plasma, read-out: hNPY2R 0.5% hP.
[2] abbreviates: 100% human plasma, read-out: hNPY2R 100% hP.
The mark [3] stands for this setting: 0.5% human plasma, read-out: hGIPR 0.5% hP.
Setting [4] is: 100% human plasma, read-out: hGIPR 100% hP.

Read-outs that look alike come from different tables or passages of the source. Starred links: 1 amine or outer side, 2 acyl side, 3 side chain; linkers in the order of their positions; H or OH if unused. Non-standard residues stand in square brackets, D forms with d. Groups on a side chain read outwards from the residue. No end group written: not given here. *: point of attachment. C20 diacid = O=C(O)CCCCCCCCCCCCCCCCCCC(=O)*; C18 diacid = O=C(O)CCCCCCCCCCCCCCCCC(=O)*; γGlu = O=C(O)[C@H](CCC(=O)[*:2])N[*:1]; εLys = N[C@@H](CCCCN[*:1])C(=O)[*:2]; AEEA = NCCOCCOCC(=O)O; Aib = CC(C)(N)C(=O)O

“H-Y[Aib]EGTFTSDYSI[Aib]LEKQAQ[Aib]AFVQWLIK([εLys-γGlu-γGlu-γGlu-γGlu-γGlu-C20 diacid])GGPEEPASLRHYYNWLTRQRY-NH2 [Compound 67, Y-Aib-E-G-T-F-T-S-D-Y-S-I-Aib-L-E-K-Q-A-Q-Aib-A-F-V-Q-W-L-I-K(1,3)-GGPEEPASLRHYYNWLTRQRY-NH2.C20DA-gGlu-gGlu-gGlu-gGlu-gGlu-eLys(1,2)]”: the EC50 is 13.7 nM at hNPY2R (setting [1]), 78.9 nM at hNPY2R (setting [2]) and 0.29 nM on hGIPR (setting [3]).

In the case of “H-Y[Aib]EGTFTSDYSI[Aib]LEKQAE[Aib]AFVEWLIK([AEEA-AEEA-γGlu-γGlu-γGlu-γGlu-C18 diacid])GGPSEGASLRHYYNWLTRQRY-NH2 [Compound 251, Y-Aib-E-G-T-F-T-S-D-Y-S-I-Aib-L-E-K-Q-A-E-Aib-A-F-V-E-W-L-I-K(1,3)-GGPSEGASLRHYYNWLTRQRY-NH2.C18DA-gGlu-gGlu-gGlu-gGlu-OEG-OEG(1,2)]”, the EC50 at hNPY2R (setting [1]) was determined as 20.6 nM; on hNPY2R (setting [2]), 48.7 nM; on hGIPR (setting [3]), 0.16 nM; on hGIPR (setting [4]) it was 0.98 nM.

For “H-Y[Aib]EGTFTSDYSI[Aib]LEKQAQ[Aib]AFVQWLIK([εLys-γGlu-γGlu-γGlu-γGlu-γGlu-γGlu-C20 diacid])GGPSEYVSLRHYYNWLTRQRY-NH2 [Compound 78, Y-Aib-E-G-T-F-T-S-D-Y-S-I-Aib-L-E-K-Q-A-Q-Aib-A-F-V-Q-W-L-I-K(1,3)-GGPSEYVSLRHYYNWLTRQRY-NH2.C20DA-gGlu-gGlu-gGlu-gGlu-gGlu-gGlu-eLys(1,2)]”, the EC50 was found to be 12.9 nM at hNPY2R (setting [1]), 24.6 nM at hNPY2R (setting [2]) and 0.53 nM at hGIPR (setting [3]).

“H-Y[Aib]EGTFTSDYSI[Aib]LE[Aib]KAQ[Aib]EFVEWLIK([εLys-γGlu-γGlu-γGlu-γGlu-γGlu-γGlu-C20 diacid])GGPSSGASLRHYYNWLTRQRY-NH2 [Compound 24, Y-Aib-E-G-T-F-T-S-D-Y-S-I-Aib-L-E-Aib-K-A-Q-Aib-E-F-V-E-W-L-I-K(1,3)-GGPSSGASLRHYYNWLTRQRY-NH2.C20DA-gGlu-gGlu-gGlu-gGlu-gGlu-gGlu-eLys(1,2)]”: on hNPY2R (setting [1]), the EC50 stood at 26.8 nM.

With “H-Y[Aib]EGTFTSDYSI[Aib]LEKQAQ[Aib]AFVEWLIK([εLys-γGlu-γGlu-γGlu-γGlu-γGlu-γGlu-C20 diacid])GGPRYYASLRHYYNWLTRQRY-NH2 [Compound 62, Y-Aib-E-G-T-F-T-S-D-Y-S-I-Aib-L-E-K-Q-A-Q-Aib-A-F-V-E-W-L-I-K(1,3)-GGPRYYASLRHYYNWLTRQRY-NH2.C20DA-gGlu-gGlu-gGlu-gGlu-gGlu-gGlu-eLys(1,2)]”, the EC50 on hNPY2R (setting [1]) is 13.6 nM; at hNPY2R (setting [2]) it was 40.5 nM; at hGIPR (setting [3]) it was 0.48 nM.

For the substance “H-Y[Aib]EGTFTSDYSI[Aib]LEKQAQ[Aib]EFVEWLIK([εLys-γGlu-γGlu-γGlu-γGlu-γGlu-γGlu-C20 diacid])GGPSSGASLRHYYNWLTRQRY-NH2 [Compound 215, Y-Aib-E-G-T-F-T-S-D-Y-S-I-Aib-L-E-K-Q-A-Q-Aib-E-F-V-E-W-L-I-K(1,3)-GGPSSGASLRHYYNWLTRQRY-NH2.C20DA-gGlu-gGlu-gGlu-gGlu-gGlu-gGlu-eLys(1,2)]”, the EC50 on hNPY2R (setting [1]) amounted to 12.4 nM; on hGIPR (setting [3]) it was 0.5 nM; on hGIPR (setting [4]), 2.94 nM.

Consider “H-Y[Aib]EGTFTSDYSI[Aib]LEKQAQ[Aib]AFVEWLIK([εLys-γGlu-γGlu-γGlu-γGlu-γGlu-γGlu-C20 diacid])GGPSEGVSLRHYYNWLTRQRY-NH2 [Compound 241, Y-Aib-E-G-T-F-T-S-D-Y-S-I-Aib-L-E-K-Q-A-Q-Aib-A-F-V-E-W-L-I-K(1,3)-GGPSEGVSLRHYYNWLTRQRY-NH2.C20DA-gGlu-gGlu-gGlu-gGlu-gGlu-gGlu-eLys(1,2)]”, for which the EC50 on hNPY2R (setting [1]) came to 16.7 nM; on hGIPR (setting [3]) it was 0.69 nM; on hGIPR (setting [4]), 4.36 nM.

Turning to “Y[Aib]EGTFTSDYSI[Aib]LEKQAE[Aib]AFVQWLIK([AEEA-AEEA-γGlu-γGlu-γGlu-γGlu-C20 diacid])GGPSEGASLRHYYNWLTRQRY-NH2 [Compound 219, Y-Aib-E-G-T-F-T-S-D-Y-S-I-Aib-L-E-K-Q-A-E-Aib-A-F-V-Q-W-L-I-K(1,3)-GGPSEGASLRHYYNWLTRQRY-NH2.C20DA-gGlu-gGlu-gGlu-gGlu-OEG-OEG(1,2)]”, the EC50 was found to be 12.8 nM on hNPY2R (setting [1]), 43.4 nM at hNPY2R (setting [2]), 0.46 nM at hGIPR (setting [3]) and 2.43 nM on hGIPR (setting [4]).

As for “H-Y[Aib]EGTFTSDYSI[Aib]LEKQAQ[Aib]EFVEWLIK([AEEA-AEEA-γGlu-γGlu-γGlu-C20 diacid])GGPSEGASLRHYYNWLTRQRY-NH2 [Compound 273, Y-Aib-E-G-T-F-T-S-D-Y-S-I-Aib-L-E-K-Q-A-Q-Aib-E-F-V-E-W-L-I-K(1,3)-GGPSEGASLRHYYNWLTRQRY-NH2.C20DA-gGlu-gGlu-gGlu-OEG-OEG(1,2)]”, the EC50 at hNPY2R (setting [1]) was 19.3 nM; at hGIPR (setting [3]), 0.38 nM; on hGIPR (setting [4]), 1.52 nM.

As to “H-Y[Aib]EGTFTSDYSI[Aib]LEKQAQ[Aib]AFVQWLIK([εLys-γGlu-γGlu-γGlu-γGlu-γGlu-γGlu-C20 diacid])GGPESGASLRHYYNWLTRQRY-NH2 [Compound 37, Y-Aib-E-G-T-F-T-S-D-Y-S-I-Aib-L-E-K-Q-A-Q-Aib-A-F-V-Q-W-L-I-K(1,3)-GGPESGASLRHYYNWLTRQRY-NH2.C20DA-gGlu-gGlu-gGlu-gGlu-gGlu-gGlu-eLys(1,2)]”, the results for the EC50 at hGLP1R, at hGIPR (setting [3]) and at hGIPR (setting [4]) were 0.11 nM, 0.24 nM and 1.44 nM, respectively.

In the case of “H-Y[Aib]EGTFTSDYSI[Aib]LAAAAQ[Aib]AFVEWLIK([εLys-γGlu-γGlu-γGlu-γGlu-γGlu-γGlu-C20 diacid])GGPSSGASLRHYYNWLTRQRY-NH2 [Compound 20, Y-Aib-E-G-T-F-T-S-D-Y-S-I-Aib-L-A-A-A-A-Q-Aib-A-F-V-E-W-L-I-K(1,3)-GGPSSGASLRHYYNWLTRQRY-NH2.C20DA-gGlu-gGlu-gGlu-gGlu-gGlu-gGlu-eLys(1,2)]”, the figures for the EC50 at hNPY2R (setting [1]) and on hGIPR (setting [3]) were 19.1 nM and 0.93 nM, respectively.

Consider “H-Y[Aib]EGTFTSDYSI[Aib]LEKQAQ[Aib]AFVEWLIK([εLys-γGlu-γGlu-γGlu-γGlu-γGlu-γGlu-C20 diacid])GGPSSGAS[Aib]RHY[Aib]NR[Aib]TRQRY-NH2 [Compound 4, Y-Aib-E-G-T-F-T-S-D-Y-S-I-Aib-L-E-K-Q-A-Q-Aib-A-F-V-E-W-L-I-K(1,3)-G-G-P-S-S-G-A-S-Aib-R-H-Y-Aib-N-R-Aib-T-R-Q-R-Y-NH2.C20DA-gGlu-gGlu-gGlu-gGlu-gGlu-gGlu-eLys(1,2)]”, for which the EC50 came out at 0.09 nM at hGLP1R, 0.25 nM on hGIPR (setting [3]) and 1.66 nM at hGIPR (setting [4]).

“H-Y[Aib]EGTFTSDYSI[Aib]LEKQAQ[Aib]EFVEWLIK([AEEA-AEEA-γGlu-γGlu-γGlu-C18 diacid])GGPESGASLRHYYNWLTRQRY-NH2 [Compound 81, Y-Aib-E-G-T-F-T-S-D-Y-S-I-Aib-L-E-K-Q-A-Q-Aib-E-F-V-E-W-L-I-K(1,3)-GGPESGASLRHYYNWLTRQRY-NH2.C18DA-gGlu-gGlu-gGlu-OEG-OEG(1,2)]”: the results for the EC50 at hNPY2R (setting [1]) and on hGIPR (setting [3]) were 11.1 nM and 0.27 nM, respectively.
